Like-named read-outs stand apart in the source and are kept apart here.
Columns and labels:
Format in all cases: cell-based
TRPML2 = target: T1, TRPML2 (Homo sapiens, UniProt Q8IZK6); assay: Fluorescent TRPML2 assay (performed as for TRPML1, substituting the TRPML2 subtype)
T1 construct: expressed in transfected cells
T1 sequence (Q8IZK6 1-566): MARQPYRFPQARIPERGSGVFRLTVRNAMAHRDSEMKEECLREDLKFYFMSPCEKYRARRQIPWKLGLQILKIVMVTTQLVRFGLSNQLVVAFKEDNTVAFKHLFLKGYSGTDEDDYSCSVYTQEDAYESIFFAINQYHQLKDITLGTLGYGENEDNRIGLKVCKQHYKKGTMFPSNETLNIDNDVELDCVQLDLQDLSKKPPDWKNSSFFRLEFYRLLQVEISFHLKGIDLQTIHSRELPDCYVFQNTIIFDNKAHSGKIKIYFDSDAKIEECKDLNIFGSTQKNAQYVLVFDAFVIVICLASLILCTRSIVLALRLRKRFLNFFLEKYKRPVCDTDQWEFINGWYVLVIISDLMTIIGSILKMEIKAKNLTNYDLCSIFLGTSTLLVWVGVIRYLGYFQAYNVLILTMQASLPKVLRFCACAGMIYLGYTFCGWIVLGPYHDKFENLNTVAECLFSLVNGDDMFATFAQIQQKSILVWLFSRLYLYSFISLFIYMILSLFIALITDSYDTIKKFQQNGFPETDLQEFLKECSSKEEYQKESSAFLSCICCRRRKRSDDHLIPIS
Procedure: (§1) HEK-293 Trex cells were stably transfected with a construct consisting of the human coding sequence for TRPML1 cloned into the […] plasmid pCDNA5 T/O. Mutations were introduced into the TRPML1 sequence to facilitate expression on the cell surface (Silvia Vergarajauregui, Rosa Puertollano, Traffic. 2006 March; 7(3): 337-353). Briefly, the cells are cultured in 150 mm round tissue culture dishes containing 20 mL of media. The day before the assay the cells are rinsed with DPBS-Ca—Mg and then treated briefly with Trypsin-EDTA. The Trypsin-EDTA is diluted with growth media, and cells are counted. 38×10^6 cells are re-plated into 150 mm round tissue culture dishes in media containing 0.5 ug/mL doxycycline to induce expression of hTRPML1.
(§2) The day of the experiment cells are lifted from the plates as above and collected by centrifugation. The cells are then suspended in dye loading buffer consisting of Ringer's solution supplemented with 0.1% Pluronic Acid and 1 micromolar Fluo4-AM dye. Cells are loaded for ˜60 minutes in the dark with occasional mixing. The cells are collected by centrifugation, the loading media aspirated, and the cells resuspended in 25 mL Ringer's solution and incubated ˜60 minutes in the dark. The cells are again collected by centrifugation, rinsed in Ringer's Solution and resuspended to […] in modified Ringer's solution containing 10 mM calcium.
(§3) Compounds are dissolved to a concentration of 10 millimolar with DMSO. Compound plates are created by dispensing compounds into 384 well black wall clear bottom plates (Greiner 781091). Positive and negative controls are included on each plate. Typically, different amounts of each compound are tested ranging from 100 nanoMoles (20 micromolar final concentration) decreasing in half-log steps to 31 picoMoles (6 nanomolar final concentration). Each concentration is typically tested in triplicate.
(§4) 50 microliters of dye-loaded cells are dispensed into each well of the compound assay plate created above. The fluorescence in each well is then determined with an excitation wavelength of 480 nm and an emission wavelength of 540 nm using either a Molecular Devices SpectraMax multimode plate reader or a Hamamatsu FDSS/uCell plate imager.
(§5) The resulting fluorescence for each well is exported as an ascii file and loaded into our LIMS for analysis. The percent activity of each compound at each concentration is determined by comparison to the positive and negative control wells included in each plate.
(§6) TRPML2 and TRPML3 Assays Assays for TRPML2 and TRPML3 were performed as above for TRPML1, by substituting the appropriate TRPML2 or TRPML3 subtype for the TRPML1.
(§7) EC50 values were calculated using a non-linear regression of Prism. In the table, “A” indicates an EC50 of less than 100 nM, “B” indicates an EC50 range from 100 nM to 500 nM; “C” indicates an EC50 range from 500 nM to 2 μM; and “D” indicates an EC50 greater than 2 μM.

TRPML3 = target: T2, TRPML3 (Homo sapiens, UniProt Q8TDD5); assay: Fluorescent TRPML3 assay (performed as for TRPML1, substituting the TRPML3 subtype)
T2 construct: expressed in transfected cells
T2 sequence (Q8TDD5 1-553): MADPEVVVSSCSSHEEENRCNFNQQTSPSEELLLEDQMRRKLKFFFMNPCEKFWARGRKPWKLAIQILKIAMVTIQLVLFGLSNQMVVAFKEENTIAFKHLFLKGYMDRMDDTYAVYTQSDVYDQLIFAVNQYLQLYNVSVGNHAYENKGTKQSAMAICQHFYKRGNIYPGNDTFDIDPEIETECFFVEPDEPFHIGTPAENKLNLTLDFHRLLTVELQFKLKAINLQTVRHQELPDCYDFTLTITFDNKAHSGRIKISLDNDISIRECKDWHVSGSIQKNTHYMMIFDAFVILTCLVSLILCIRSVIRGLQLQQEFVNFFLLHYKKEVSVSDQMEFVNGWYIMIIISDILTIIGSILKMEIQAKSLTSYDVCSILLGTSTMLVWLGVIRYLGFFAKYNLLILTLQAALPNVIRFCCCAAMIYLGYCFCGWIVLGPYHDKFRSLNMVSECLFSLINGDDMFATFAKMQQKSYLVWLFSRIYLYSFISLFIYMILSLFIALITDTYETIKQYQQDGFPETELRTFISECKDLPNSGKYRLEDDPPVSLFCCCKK
Procedure: as §1, §2, §3, §4, §5, §6, §7

TRPML1 = TRPML1 (Homo sapiens, UniProt Q9GZU1); assay: Fluorescent TRPML1 assay (Fluo4-AM calcium fluorescence in doxycycline-induced HEK-293 Trex cells)
How it was run: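 HEK-293 Trex cells stably carrying human TRPML1 (surface-trafficking mutant) were induced overnight with 0.5 ug/mL doxycycline, loaded with 1 micromolar Fluo4-AM, and suspended in Ringer's with 10 mM calcium. Compounds at 20 micromolar to 6 nanomolar final, half-log steps, triplicate; fluorescence 480/540 nm gave percent activity versus controls and EC50 by non-linear regression.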

Sequence of TRPML1 (Q9GZU1 whole entry L15A/L16A/L577A/L578A, form open): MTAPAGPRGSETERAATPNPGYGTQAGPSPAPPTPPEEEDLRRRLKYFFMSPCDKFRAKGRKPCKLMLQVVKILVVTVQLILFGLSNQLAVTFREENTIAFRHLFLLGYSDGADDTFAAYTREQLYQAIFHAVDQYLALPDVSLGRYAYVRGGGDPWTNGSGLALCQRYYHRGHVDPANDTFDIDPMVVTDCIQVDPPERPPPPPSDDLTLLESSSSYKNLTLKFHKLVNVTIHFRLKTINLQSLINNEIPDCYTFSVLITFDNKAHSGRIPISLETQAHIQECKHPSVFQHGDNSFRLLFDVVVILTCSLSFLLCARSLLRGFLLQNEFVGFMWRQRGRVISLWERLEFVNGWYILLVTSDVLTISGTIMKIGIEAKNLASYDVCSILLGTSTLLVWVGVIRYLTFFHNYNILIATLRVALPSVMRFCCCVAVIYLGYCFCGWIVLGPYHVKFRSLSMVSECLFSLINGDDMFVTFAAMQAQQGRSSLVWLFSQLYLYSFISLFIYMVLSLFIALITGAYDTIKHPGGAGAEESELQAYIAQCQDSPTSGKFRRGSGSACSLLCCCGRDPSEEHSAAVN

`Cc1cncc(-n2cc(C3CC3)c3c(N4CCN(C(=O)OC(C)(C)C)[C@@H](C)C4)ncnc32)c1` (single isomer, unassigned) [Compound 174] gave an EC50 (TRPML2; fluorescent calcium assay) of 0.5 to 2 µM, an EC50 (TRPML3; fluorescent calcium assay) of 0.1 to 0.5 µM and an EC50 (TRPML1; fluorescent calcium assay) of 0.1 to 0.5 µM.

`Cc1cncc(-n2cc(C3CC3)c3c(N4CCN(C(=O)OC(C)(C)C)[C@H](C)C4)ncnc32)c1` (single isomer, unassigned) [Compound 175] was tested, and the EC50 (TRPML2; fluorescent calcium assay) was greater than 2 µM, the EC50 (TRPML3; fluorescent calcium assay) was 0.5 to 2 µM and the EC50 (TRPML1; fluorescent calcium assay) was 0.5 to 2 µM.

`CC(C)(C)OC(=O)N1CCN(c2ncnc3c2c(C2CC2)cn3-c2cc(F)cc(F)c2)C[C@H]1CF` (single isomer, unassigned) [Compound 269] gave an EC50 (TRPML2; fluorescent calcium assay) of 0.5 to 2 µM, an EC50 (TRPML3; fluorescent calcium assay) of less than 0.1 µM and an EC50 (TRPML1; fluorescent calcium assay) of 0.1 to 0.5 µM.

In the case of `CC(C)(C)OC(=O)N1CCN(c2ncnc3c2c(C2CC2)cn3-c2cc(F)cc(F)c2)C[C@@H]1CF` (single isomer, unassigned) [Compound 270], the EC50 (TRPML2; fluorescent calcium assay) is reported as greater than 2 µM, the EC50 (TRPML3; fluorescent calcium assay) is reported as 0.1 to 0.5 µM and the EC50 (TRPML1; fluorescent calcium assay) is reported as 0.5 to 2 µM.

`CC(C)(C)OC(=O)N1CCN(c2ncnc3c2c(C2CC2)cn3-c2cc(F)cc(F)c2)C[C@H]1C(F)F` (single isomer, unassigned) [Compound 314] was tested, and the EC50 (TRPML2; fluorescent calcium assay) was greater than 2 µM, the EC50 (TRPML3; fluorescent calcium assay) was 0.5 to 2 µM and the EC50 (TRPML1; fluorescent calcium assay) was 0.5 to 2 µM.

`CC(C)(C)OC(=O)N1CCN(c2ncnc3c2c(C2CC2)cn3-c2cc(C#N)ccn2)[C@@H]2C[C@@H]21` (single isomer, unassigned) [Compound 408] showed an EC50 (TRPML2; fluorescent calcium assay) of 0.1 to 0.5 µM, an EC50 (TRPML3; fluorescent calcium assay) of less than 0.1 µM and an EC50 (TRPML1; fluorescent calcium assay) of 0.1 to 0.5 µM.

In the case of `CC(C)(C)OC(=O)N1CCN(c2ncnc3c2c(C2CC2)cn3-c2cc(C#N)ccn2)[C@H]2C[C@H]21` (single isomer, unassigned) [Compound 409], the EC50 (TRPML2; fluorescent calcium assay) is reported as 0.1 to 0.5 µM, the EC50 (TRPML3; fluorescent calcium assay) is reported as less than 0.1 µM and the EC50 (TRPML1; fluorescent calcium assay) is reported as less than 0.1 µM.

Compound `C[C@@H]1CN(c2ncnc3c2c(C(F)(F)F)cn3[C@@H]2CCCC(F)(F)C2)[C@@H](C)CN1C(=O)OC(C)(C)C` (single isomer, unassigned) [Compound 714] has an EC50 (TRPML2) of 0.5 to 2 µM, an EC50 (TRPML3) of 0.1 to 0.5 µM and an EC50 (TRPML1) of 0.1 to 0.5 µM.

Work on `CC(C)(C)OC(=O)N1CCN(c2ncnc3c2c(-c2ccccn2)cn3-c2cccc(Cl)c2)CC1` [Compound 101, tert-butyl 4-(7-(3-chlorophenyl)-5-(pyridin-2-yl)-7H-pyrrolo[2,3-d]pyrimidin-4-yl)piperazine-1-carboxylate] yielded an EC50 (TRPML2; fluorescent calcium assay) of 0.1 to 0.5 µM, an EC50 (TRPML3; fluorescent calcium assay) of less than 0.1 µM and an EC50 (TRPML1; fluorescent calcium assay) of 0.1 to 0.5 µM.

Work on `CC(C)(C)OC(=O)N1CCN(c2ncnc3c2c(-c2cccnc2)cn3-c2cccc(Cl)c2)CC1` [Compound 102, tert-butyl 4-(7-(3-chlorophenyl)-5-(pyridin-3-yl)-7H-pyrrolo [2,3-d]pyrimidin-4-yl)piperazine-1-carboxylate] yielded an EC50 (TRPML2; fluorescent calcium assay) of 0.1 to 0.5 µM, an EC50 (TRPML3; fluorescent calcium assay) of less than 0.1 µM and an EC50 (TRPML1; fluorescent calcium assay) of less than 0.1 µM.

Work on `COc1cncc(-n2cc(-c3ccccc3F)c3c(N4CCN(C(=O)OC(C)(C)C)CC4)ncnc32)c1` [Compound 103, tert-butyl 4-(5-(2-fluorophenyl)-7-(5-methoxypyridin-3-yl)-7H-pyrrolo[2,3-d]pyrimidin-4-yl)piperazine-1-carboxylate] yielded an EC50 (TRPML2; fluorescent calcium assay) of 0.5 to 2 µM, an EC50 (TRPML3; fluorescent calcium assay) of 0.1 to 0.5 µM and an EC50 (TRPML1; fluorescent calcium assay) of 0.1 to 0.5 µM.

Compound `COc1cncc(-n2cc(C3CC3)c3c(N4CCN(C(=O)OC(C)(C)C)CC4)ncnc32)c1` [Compound 104, tert-butyl 4-(5-cyclopropyl-7-(5-methoxypyridin-3-yl)-7H-pyrrolo[2,3-d]pyrimidin-4-yl)piperazine-1-carboxylate] has an EC50 (TRPML2; fluorescent calcium assay) greater than 2 µM, an EC50 (TRPML3; fluorescent calcium assay) of 0.1 to 0.5 µM and an EC50 (TRPML1; fluorescent calcium assay) of 0.5 to 2 µM.

`COc1cncc(-n2cc(-c3ccccc3F)c3c(N4CCN(C(=O)OC(C)(C)C)C[C@@H]4C)ncnc32)c1` [Compound 105, tert-butyl (S)-4-(5-(2-fluorophenyl)-7-(5-methoxypyridin-3-yl)-7H-pyrrolo[2,3-d]pyrimidin-4-yl)-3-methylpiperazine-1-carboxylate] showed an EC50 (TRPML2; fluorescent calcium assay) greater than 2 µM, an EC50 (TRPML3; fluorescent calcium assay) of 0.5 to 2 µM and an EC50 (TRPML1; fluorescent calcium assay) of 0.5 to 2 µM.

With `COc1cncc(-n2cc(C3CC3)c3c(N4CCN(C(=O)OC(C)(C)C)C[C@@H]4C)ncnc32)c1` [Compound 106, tert-butyl (S)-4-(5-cyclopropyl-7-(5-methoxypyridin-3-yl)-7H-pyrrolo[2,3-d]pyrimidin-4-yl)-3-methylpiperazine-1-carboxylate] the EC50 (TRPML2; fluorescent calcium assay) was 0.5 to 2 µM, the EC50 (TRPML3; fluorescent calcium assay) was 0.1 to 0.5 µM and the EC50 (TRPML1; fluorescent calcium assay) was 0.1 to 0.5 µM.

`C[C@H]1CN(C(=O)OC(C)(C)C)CCN1c1ncnc2c1c(-c1ccccc1)cn2-c1cc(C#N)ccn1` [Compound 320, tert-butyl (S)-4-(7-(4-cyanopyridin-2-yl)-5-phenyl-7H-pyrrolo[2,3-d]pyrimidin-4-yl)-3-methylpiperazine-1-carboxylate] was tested, and the EC50 (TRPML2; fluorescent calcium assay) was 0.1 to 0.5 µM and the EC50 (TRPML1; fluorescent calcium assay) was less than 0.1 µM.

For `COC(=O)N1CCN(c2ncnc3c2c(-c2ccccc2F)cn3-c2cc(C#N)ccn2)[C@@H](C)C1` [Compound 351, methyl (S)-4-(7-(4-cyanopyridin-2-yl)-5-(2-fluorophenyl)-7H-pyrrolo[2,3-d]pyrimidin-4-yl)-3-methylpiperazine-1-carboxylate], the EC50 (TRPML2; fluorescent calcium assay) was 0.5 to 2 µM and the EC50 (TRPML1; fluorescent calcium assay) was less than 0.1 µM.

For `C[C@@H]1CN(c2ncnc3c2c(C(F)F)cn3C2CCC(C#N)C2)[C@@H](C)CN1C(=O)OC(C)(C)C` (stereo partly drawn) [Compound 634], the EC50 (TRPML3) was 0.5 to 2 µM and the EC50 (TRPML1) was 0.5 to 2 µM.

In the case of `Cc1cn(-c2cncnc2)c2ncnc(N3C[C@@H](C)N(C(=O)OC(C)(C)C)C[C@@H]3C)c12` [Compound 674, tert-butyl (2R,5S)-2,5-dimethyl-4-(5-methyl-7-(pyrimidin-5-yl)-7H-pyrrolo[2,3-d]pyrimidin-4-yl)piperazine-1-carboxylate], the EC50 (TRPML3) is reported as greater than 2 µM and the EC50 (TRPML1) is reported as greater than 2 µM.

`Cc1cn(-c2cncnc2)c2ncnc(N3CCN(C(=O)OC(C)(C)C)C[C@@H]3C)c12` [Compound 691, tert-butyl (S)-3-methyl-4-(5-methyl-7-(pyrimidin-5-yl)-7H-pyrrolo[2,3-d]pyrimidin-4-yl)piperazine-1-carboxylate] gave an EC50 (TRPML3) of 0.5 to 2 µM and an EC50 (TRPML1) of 0.5 to 2 µM.

In the case of `Cc1cn(-c2cncc(C#N)c2)c2ncnc(N3CCN(C(=O)OC(C)(C)C)C[C@@H]3C)c12` [Compound 694, tert-butyl (S)-4-(7-(5-cyanopyridin-3-yl)-5-methyl-7H-pyrrolo[2,3-d]pyrimidin-4-yl)-3-methylpiperazine-1-carboxylate], the EC50 (TRPML3) is reported as less than 0.1 µM and the EC50 (TRPML1) is reported as 0.1 to 0.5 µM.

From patent US20250136606A1, “MODULATORS OF TRPML, THEIR COMPOSITIONS AND METHODS OF USE” (Caraway Therapeutics, Inc., priority 2021, published 2025)
